Laboratory results reported in US20240199546A1, “INHIBITORS OF SOLUTE CARRIER FAMILY 6A MEMBER 19 (SLC6A19) AND METHODS OF USE THEREOF” (Maze Therapeutics, Inc., priority 2022, published 2024).

molecular target: T1, human SLC6A19 and TMEM27 (Homo sapiens, UniProt Q695T7); experiment: Radiolabelled (3H) leucine uptake in CHO cells with doxycycline-inducible expression of human SLC6A19 and TMEM27 (Example B-1); format: cell-based; conditions: CHO cells with doxycycline-inducible expression of human SLC6A19 and TMEM27, read-out: SLC6A19_Radioligand Uptake Assay IC50
T1 construct: expressed in transfected cells
T1 sequence (Q695T7 1-634): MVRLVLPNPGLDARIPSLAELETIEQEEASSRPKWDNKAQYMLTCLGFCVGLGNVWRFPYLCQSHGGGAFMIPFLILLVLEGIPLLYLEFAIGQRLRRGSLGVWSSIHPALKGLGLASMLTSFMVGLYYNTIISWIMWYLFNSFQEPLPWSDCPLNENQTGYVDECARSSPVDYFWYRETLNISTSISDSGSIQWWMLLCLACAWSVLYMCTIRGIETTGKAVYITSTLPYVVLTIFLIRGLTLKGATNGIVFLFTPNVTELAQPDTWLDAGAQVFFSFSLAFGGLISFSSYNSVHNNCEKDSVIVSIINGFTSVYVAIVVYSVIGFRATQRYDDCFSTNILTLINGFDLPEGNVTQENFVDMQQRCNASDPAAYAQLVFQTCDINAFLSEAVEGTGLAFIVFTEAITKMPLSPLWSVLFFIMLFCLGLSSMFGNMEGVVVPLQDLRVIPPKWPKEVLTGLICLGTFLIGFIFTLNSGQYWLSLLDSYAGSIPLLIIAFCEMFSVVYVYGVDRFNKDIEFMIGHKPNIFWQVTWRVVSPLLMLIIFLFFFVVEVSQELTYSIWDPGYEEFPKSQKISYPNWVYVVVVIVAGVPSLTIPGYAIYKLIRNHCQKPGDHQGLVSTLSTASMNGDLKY
T1 sequence (Q9HBJ8 15-222 partner): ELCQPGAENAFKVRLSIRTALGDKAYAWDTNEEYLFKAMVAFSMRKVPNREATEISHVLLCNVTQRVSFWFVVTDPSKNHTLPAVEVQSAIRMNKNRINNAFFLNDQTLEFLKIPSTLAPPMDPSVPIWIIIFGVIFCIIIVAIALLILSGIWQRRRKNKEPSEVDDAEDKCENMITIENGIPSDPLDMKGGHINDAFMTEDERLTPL
Description: The flasks were then incubated (humidified, 37° C. with 5% CO2) for 2 minutes. After incubation, 10 mL of pre-warmed cell culture media was added to each flask. The cell suspension was collected and centrifuged for 5 minutes at 200×g. The supernatant was aspirated and the pellet was resuspended in 5 mL pre-warmed cell culture media. The resuspended cells were counted using the Countess Cell Counting Chamber (Invitrogen) and the cell concentration of the suspension was readjusted to 1 million live cells/mL using pre-warmed cell culture media. […] Assay plates were then incubated (humidified, 37° C. with 5% CO2) for 18 hours. After incubation, the media was aspirated and the wells were washed 4 times with pre-warmed HBSS (Sigma-Aldrich, H8264-1L) using an Apricot S-Pipette S2 (Apricot Designs), such that 5 uL/well HBSS was remaining at the end of each wash. […] At this step, the final in-well DMSO concentration in the assay plate is 0.5%. All compounds were plated in a duplicate 8-point dilution series that consisted of 3-fold dilutions. The plates were incubated with compound (humidified, 37° C. with 5% CO2) for 1 hour. […] The plates were then incubated (humidified, 37° C. with 5% CO2) on a plate shaker at 200 rpm for 2 hours. After incubation, the plates were removed from the shaker and kept at room temperature for 15 minutes. Liquid scintillation analysis was performed using the MicroBeta2 Microplate Counter (Perkin Elmer). Activity (%) was derived by normalizing the average of positive control compound treated wells to 0% and the average of DMSO (negative control) wells to 100%. Collaborative Drug Discovery software was used for graphing data.

| SMILES | IC50 [µM] |
| --- | --- |
| CC(=O)NCc1cc2c(F)cc(OCc3ccon3)cc2[nH]1 [Compound 453, N-((4-fluoro-6-(isoxazol-3-ylmethoxy)-1H-indol-2-yl)methyl)acetamide] | 0.859 |
| CC1(C(=O)NCc2cc3cc(CC#N)c(OCc4cscn4)cc3[nH]2)CC1 [Compound 643, N-((5-(cyanomethyl)-6-(thiazol-4-ylmethoxy)-1H-indol-2-yl)methyl)-1-methylcyclopropane-1-carboxamide] | 0.631 |
| Cc1cc(COc2cc3[nH]c(CNC(=O)[C@@H](C)O)cc3cc2F)on1 [Compound 283, (R)-N-((5-fluoro-6-((3-methylisoxazol-5-yl)methoxy)-1H-indol-2-yl)methyl)-2-hydroxypropanamide] | > 8.95 |
| Cc1cc(COc2cc3[nH]c(CNC(=O)N4CCC4C#N)cc3cc2Cl)on1 (stereo not drawn) [Compound 376, N-((5-chloro-6-((3-methylisoxazol-5-yl)methoxy)-1H-indol-2-yl)methyl)-2-cyanoazetidine-1-carboxamide] | 2.12 |
| Cc1cc(COc2cc3[nH]c(CNC(=O)C4(F)CC4)cc3cc2F)on1 [Compound 572, 1-fluoro-N-((5-fluoro-6-((3-methylisoxazol-5-yl)methoxy)-1H-indol-2-yl)methyl)cyclopropane-1-carboxamide] | 0.113 |
| O=C(NCc1cc2cc(F)c(CCc3cscn3)cc2[nH]1)N1CCC1 [Compound 600, N-((5-fluoro-6-(2-(thiazol-4-yl)ethyl)-1H-indol-2-yl)methyl)azetidine-1-carboxamide] | 0.145 |
| C[C@@H](O)C(=O)NCc1cc2cc(F)c(OCc3cscn3)cc2[nH]1 [Compound 282, (R)-N-((5-fluoro-6-(thiazol-4-ylmethoxy)-1H-indol-2-yl)methyl)-2-hydroxypropanamide] | 2.67 |
| COCCOCC(=O)NCc1cc2cc(Cl)c(OCc3cc(C)no3)cc2[nH]1 [Compound 299, N-((5-chloro-6-((3-methylisoxazol-5-yl)methoxy)-1H-indol-2-yl)methyl)-2-(2-methoxyethoxy)acetamide] | > 9.06 |

The remaining molecules from weak to strong by IC50, led by results:

| IC50 [µM] | SMILES |
| --- | --- |
| 1.93 | CC1(C(=O)NCc2cc3cc(Cl)c(OCC4CC(F)(F)C4)cc3[nH]2)CC1 [Compound 353, N-((5-chloro-6-((3,3-difluorocyclobutyl)methoxy)-1H-indol-2-yl)methyl)-1-methylcyclopropane-1-carboxamide] |
| 1.07 | CN(Cc1cn[nH]c1)C(=O)NCc1cc2cc(Cl)c(OCc3ccon3)cc2[nH]1 [Compound 629, 1-((1H-pyrazol-4-yl)methyl)-3-((5-chloro-6-(isoxazol-3-ylmethoxy)-1H-indol-2-yl)methyl)-1-methylurea] |
| 0.824 | Cc1cc(COc2cc3[nH]c(CNC(=O)[C@@H]4CCN4C)cc3cc2Cl)on1 [Compound 576, (S)-N-((5-chloro-6-((3-methylisoxazol-5-yl)methoxy)-1H-indol-2-yl)methyl)-1-methylazetidine-2-carboxamide] |
| 0.365 | CC1CCN(C(=O)NCc2cc3cc(Cl)c(OCc4ccon4)cc3[nH]2)C1 (stereo not drawn) [Compound 87, N-((5-chloro-6-(isoxazol-3-ylmethoxy)-1H-indol-2-yl)methyl)-3-methylpyrrolidine-1-carboxamide] |
| 0.214 | O=C(CC(F)(F)F)NCc1cc2cc(Cl)c(OCc3cscn3)cc2[nH]1 [Compound 554, N-((5-chloro-6-(thiazol-4-ylmethoxy)-1H-indol-2-yl)methyl)-3,3,3-trifluoropropanamide] |
| 0.11 | COCC(=O)NCc1cc2cc(Cl)c(OCc3cscn3)cc2[nH]1 [Compound 270, N-((5-chloro-6-(thiazol-4-ylmethoxy)-1H-indol-2-yl)methyl)-2-methoxyacetamide] |
| 0.0774 | CC(F)C(=O)NCc1cc2cc(Cl)c(OCc3cscn3)cc2[nH]1 (single isomer, unassigned) [Compound 444, (R or S)-N-((5-chloro-6-(thiazol-4-ylmethoxy)-1H-indol-2-yl)methyl)-2-fluoropropanamide] |
